# pIC50: −log10 of the molar value.
# Target: T1, human MC5R (Homo sapiens, UniProt P33032)
# T1 construct: purchased Perkin Elmer RBXMC5M400UA
# Test: Human MC5R radioligand binding assay ([125I] NDP-MSH displacement, hMC5R membranes)
# Conditions: not given
# Method: After incubation for 10 mins the phosphate buffer containing the iodine was added to NDP-MSH (10 ul at 1 mg/mL) in a separate eppendorf tube. This was incubated for a further 10 mins.
# Resuspended membranes were kept on ice until they were added to the wells of the plate.
# Assays were performed in 96 well polypropylene plates. […] This was incubated for 1 hr at 37 °C. Non-specific binding was determined with […] NDP-MSH. Plates were filtered using a Tomtec cell harvester with GF/A filters (Wallac) (presoaked in 0.6% polyethylenimine) and washed three times with 1.0 mL ice-cold wash buffer (the above incubation buffer without 1,10-phenanthroline and Complete™ protease inhibitor tablet). The filters were dried in a 37 °C oven, placed in a sample bag and 5 mL Betaplatescint (Wallac) was added. Prepared filters were counted in cassettes in a Microbeta Trilux (Wallac) for 1 min. […] Data analysis was performed using GraphPad Prism 4, employing competition binding with a single site model and a fixed Hill coefficient. The following equation was used: Y = Bottom + (Top-Bottom)/1/10^(X-logEC50), where X = log(concentration) and Y = binding to fit the data.
# T1 sequence (P33032 whole entry): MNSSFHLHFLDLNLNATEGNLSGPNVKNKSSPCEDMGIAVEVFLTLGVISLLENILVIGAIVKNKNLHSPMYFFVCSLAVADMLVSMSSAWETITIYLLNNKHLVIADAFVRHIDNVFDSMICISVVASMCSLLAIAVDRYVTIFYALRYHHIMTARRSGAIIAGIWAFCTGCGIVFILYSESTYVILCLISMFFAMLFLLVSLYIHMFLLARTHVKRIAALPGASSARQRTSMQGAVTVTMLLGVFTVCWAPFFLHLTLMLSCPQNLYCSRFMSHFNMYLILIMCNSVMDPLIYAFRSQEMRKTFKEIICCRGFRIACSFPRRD
row,pIC50,Structure (SMILES)
1,> 5.00,"CC[C@@H](CN1CC[C@@H](CNC(=O)c2ccc(Cl)c(Cl)c2)N[C@@H](CCN)C1=O)C(C)C (racemic) [Compound 489, N-(((3S,5S)-3-(2-aminoethyl)-1-((R)-2-ethyl-3-methylbutyl)-2-oxo-1,4-diazepan-5-yl)methyl)-3,4-dichlorobenzamide]"
2,> 5.00,"CC[C@H](CN1CC[C@@H](CNC(=O)c2ccc(Cl)c(Cl)c2)N[C@@H](CCN)C1=O)C(C)C (racemic) [Compound 490, N-(((3S,5S)-3-(2-aminoethyl)-1-((S)-2-ethyl-3-methylbutyl)-2-oxo-1,4-diazepan-5-yl)methyl)-3,4-dichlorobenzamide]"
3,> 7.00,"CC[C@H](CN1CC[C@@H](CNC(=O)c2ccc3cc(Cl)ccc3c2)N[C@@H](CC(C)(C)N2CCCCC2)C1=O)c1ccccc1 (racemic) [Compound 499, 6-chloro-N-(((3S,5S)-3-(2-methyl-2-(piperidin-1-yl)propyl)-2-oxo-1-((S)-2-phenylbutyl)-1,4-diazepan-5-yl)methyl)-2-naphthamide]"
4,> 7.00,"CC[C@H](CN1CC[C@H](CNC(=O)c2ccc3cc(Cl)ccc3c2)N[C@H](CC(C)(C)N2CCCCC2)C1=O)c1ccccc1 (racemic) [Compound 500, 6-chloro-N-(((3R,5R)-3-(2-methyl-2-(piperidin-1-yl)propyl)-2-oxo-1-((S)-2-phenylbutyl)-1,4-diazepan-5-yl)methyl)-2-naphthamide]"
5,> 7.00,"CCC(CN1CCC(CNC(=O)c2ccc3cc(Cl)ccc3c2)N[C@@H](C2CCN(C(C)C)CC2)C1=O)c1ccccc1 (mixture of isomers) [Compound 564, (S)-6-chloro-N-((3-(1-isopropylpiperidin-4-yl)-2-oxo-1-(2-phenylbutyl)-1,4-diazepan-5-yl)methyl)-2-naphthamide]"

# Same assay, conditions: hMC5R assay as in Example 102; compounds tested as trifluoroacetate or hydrochloride salts, or as free base
row,pIC50,Structure (SMILES)
1,> 6.00,"N=C(N)NCCC[C@@H]1N[C@H](CNC(=O)c2cnc3ccccc3n2)CCN(CC(c2ccccc2)c2ccccc2)C1=O [Compound 113, N-(((3S,5S)-1-(2,2-diphenylethyl)-3-(3-guanidinopropyl)-2-oxo-1,4-diazepan-5-yl)methyl)quinoxaline-2-carboxamide]"
2,> 6.00,"N=C(N)NCCC[C@@H]1N[C@H](CNC(=O)c2cc3ccccc3cn2)CCN(CC(c2ccccc2)c2ccccc2)C1=O [Compound 114, N-(((3S,5S)-1-(2,2-diphenylethyl)-3-(3-guanidinopropyl)-2-oxo-1,4-diazepan-5-yl)methyl)isoquinoline-3-carboxamide]"
3,> 6.00,"N=C(N)NCCC[C@@H]1N[C@H](CNC(=O)c2ccccc2)CCN(CC(c2ccccc2)c2ccccc2)C1=O [Compound 115, N-(((3S,5S)-1-(2,2-diphenylethyl)-3-(3-guanidinopropyl)-2-oxo-1,4-diazepan-5-yl)methyl)benzamide]"
4,> 6.00,"N=C(N)NCCC[C@@H]1N[C@H](CNC(=O)c2ccc3ccccc3n2)CCN(CC(c2ccccc2)c2ccccc2)C1=O [Compound 116, N-(((3S,5S)-1-(2,2-diphenylethyl)-3-(3-guanidinopropyl)-2-oxo-1,4-diazepan-5-yl)methyl)quinoline-2-carboxamide]"
5,> 6.00,"NCCCC[C@@H]1N[C@H](CNC(=O)c2ccc3ccccc3c2)CCN(Cc2cccc3ccccc23)C1=O [Compound 117, N-(((3S,5S)-3-(4-aminobutyl)-1-(naphthalen-1-ylmethyl)-2-oxo-1,4-diazepan-5-yl)methyl)-2-naphthamide]"
6,> 5.00,"NCCCC[C@@H]1N[C@H](CNC(=O)Cc2ccc3ccccc3c2)CCN(Cc2cccc3ccccc23)C1=O [Compound 118, N-(((3S,5S)-3-(4-aminobutyl)-1-(naphthalen-1-ylmethyl)-2-oxo-1,4-diazepan-5-yl)methyl)-2-(naphthalen-2-yl)acetamide]"
7,> 6.00,"NCCCC[C@@H]1N[C@H](CNC(=O)c2ccc3ccccc3c2)CCN(Cc2ccc3ccccc3c2)C1=O [Compound 122, N-(((3S,5S)-3-(4-aminobutyl)-1-(naphthalen-2-ylmethyl)-2-oxo-1,4-diazepan-5-yl)methyl)-2-naphthamide]"
8,> 5.00,"NCCCC[C@@H]1N[C@H](CNC(=O)Cc2ccc3ccccc3c2)CCN(Cc2ccc3ccccc3c2)C1=O [Compound 123, N-(((3S,5S)-3-(4-aminobutyl)-1-(naphthalen-2-ylmethyl)-2-oxo-1,4-diazepan-5-yl)methyl)-2-(naphthalen-2-yl)acetamide]"
9,> 5.00,"NCCCC[C@@H]1N[C@H](CNC(=O)c2cccc3ccccc23)CCN(Cc2ccc3ccccc3c2)C1=O [Compound 124, N-(((3S,5S)-3-(4-aminobutyl)-1-(naphthalen-2-ylmethyl)-2-oxo-1,4-diazepan-5-yl)methyl)-1-naphthamide]"

# The remaining lines, values behind:
row,Structure (SMILES),pIC50
1,"CCC(CN1CC[C@@H](CNC(=O)c2ccc3ccccc3c2)N[C@@H](CCN)C1=O)c1ccccc1 (mixture of isomers) [Compound 37, (3S,5S)-3-(2-aminoethyl)-5-(N-2-naphthamidomethyl)-1-(2-phenylbutyl)-1,4-diazepan-2-one]",> 7.00
2,"CCN(CC)CC[C@@H]1N[C@H](CNC(=O)c2ccc3cc(F)ccc3c2)CCN(CC(c2ccccc2)c2ccccc2)C1=O [Compound 25, N-(((3S,5S)-3-(2-(diethylamino)ethyl)-1-(2,2-diphenylethyl)-2-oxo-1,4-diazepan-5-yl)methyl)-6-fluoro-2-naphthamide]",> 7.00
3,"NCC[C@@H]1N[C@H](CNC(=O)c2ccc3cc(F)ccc3c2)CCN(CC(c2ccccc2)c2ccccc2)C1=O [Compound 31, N-(((3S,5S)-3-(2-aminoethyl)-1-(2,2-diphenylethyl)-2-oxo-1,4-diazepan-5-yl)methyl)-6-fluoro-2-naphthamide]",> 6.00
4,"NCC[C@@H]1N[C@H](CNC(=O)c2ccc3ccccc3c2)CCN(Cc2cc(Cl)cc(Cl)c2)C1=O [Compound 49, (3S,5S)-3-(2-aminoethyl)-5-(2-naphthoylaminomethyl)-1-(3,5-dichlorobenzyl)-1,4-diazepan-2-one]",> 6.00
5,"N=C(N)NCCC[C@@H]1N[C@H](CNS(=O)(=O)c2ccc3ccccc3c2)CCN(CC(c2ccccc2)c2ccccc2)C1=O [Compound 50, N-(((3S,5S)-1-(2,2-diphenylethyl)-3-(3-guanidinopropyl)-2-oxo-1,4-diazepan-5-yl)methyl)-2-naphthalene-2-sulfonamide]",> 5.00
6,"CCC(CC)CN1CC[C@@H](CNC(=O)c2ccc3ccccc3c2)N[C@@H](CCN)C1=O [Compound 54, N-(((3S,5S)-3-(2-aminoethyl)-1-(2-ethylbutyl)-2-oxo-1,4-diazepan-5-yl)methyl)-2-naphthamide]",> 6.00
7,"CN(C[C@@H]1CCN(CC(c2ccccc2)c2ccccc2)C(=O)[C@H](CCCN)N1)C(=O)c1ccc2cc(Br)ccc2c1 [Compound 60, N-(((3S,5S)-3-(3-aminopropyl)-1-(2,2-diphenylethyl)-2-oxo-1,4-diazepan-5-yl)methyl)-6-bromo-N-methyl-2-naphthamide]",> 5.00
8,"CN1[C@H](CNC(=O)c2ccc3cc(Br)ccc3c2)CCN(CC(c2ccccc2)c2ccccc2)C(=O)[C@@H]1CCCN [Compound 62, N-(((3S,5S)-3-(3-aminopropyl)-1-(2,2-diphenylethyl)-4-methyl-2-oxo-1,4-diazepan-5-yl)methyl)-6-bromo-2-naphthamide]",> 6.00
9,"NCCC[C@@H]1N[C@H](CNC(=O)c2ccc3ccccc3c2)CCN(CC(c2ccccc2)c2ccccc2)C1=O [Compound 63, N-(((3S,5S)-3-(3-aminopropyl)-1-(2,2-diphenylethyl)-2-oxo-1,4-diazepan-5-yl)methyl)-2-naphthamide]",> 6.00
10,"CC(C)NCCC[C@@H]1N[C@H](CNC(=O)c2ccc3ccccc3c2)CCN(CC(c2ccccc2)c2ccccc2)C1=O [Compound 65, N-(((3S,5S)-1-(2,2-diphenylethyl)-3-(3-(isopropylamino)propyl)-2-oxo-1,4-diazepan-5-yl)methyl)-2-naphthamide]",> 7.00
11,"CNC(=N)NCCC[C@@H]1N[C@H](CNC(=O)c2ccc3ccccc3c2)CCN(CC(c2ccccc2)c2ccccc2)C1=O [Compound 67, N-(((3S,5S)-1-(2,2-diphenylethyl)-3-(3-(3-methylguanidino)propyl)-2-oxo-1,4-diazepan-5-yl)methyl)-2-naphthamide]",> 8.00
12,"CNCCC[C@@H]1N[C@H](CNC(=O)c2ccc3ccccc3c2)CCN(CC(c2ccccc2)c2ccccc2)C1=O [Compound 71, N-(((3S,5S)-1-(2,2-diphenylethyl)-3-(3-(methylamino)propyl)-2-oxo-1,4-diazepan-5-yl)methyl)-2-naphthamide]",> 6.00
13,"N=C(N)NCCC[C@@H]1N[C@H](CNC(=O)Cc2ccc3ccccc3c2)CCN(CC(c2ccccc2)c2ccccc2)C1=O [Compound 110, N-(((3S,5S)-1-(2,2-diphenylethyl)-3-(3-guanidinopropyl)-2-oxo-1,4-diazepan-5-yl)methyl)-2-(naphthalen-2-yl)acetamide]",> 6.00
14,"N=C(N)NCCC[C@@H]1N[C@H](CNC(=O)C2CCc3ccccc3C2)CCN(CC(c2ccccc2)c2ccccc2)C1=O (stereo partly drawn) [Compound 111, N-(((3S,5S)-1-(2,2-diphenylethyl)-3-(3-guanidinopropyl)-2-oxo-1,4-diazepan-5-yl)methyl)-1,2,3,4-tetrahydronaphthalene-2-carboxamide]",> 7.00
15,"N=C(N)NCCC[C@@H]1N[C@H](CNC(=O)c2cnc3ccccc3c2)CCN(CC(c2ccccc2)c2ccccc2)C1=O [Compound 112, N-(((3S,5S)-1-(2,2-diphenylethyl)-3-(3-guanidinopropyl)-2-oxo-1,4-diazepan-5-yl)methyl)quinoline-3-carboxamide]",> 7.00

# Reference: patent publication EP2257297B1, “COMPOUNDS FOR USE IN THE TREATMENT OF ACNE, SEBORRHOEA AND SEBHORROEIC DERMATITIS, OR FOR REDUCING SEBUM SECRETION” (priority 2008, dated 2009)
